From patent US20200187502A1, “MICROBIOCIDAL OXADIAZOLE DERIVATIVES” (SYNGENTA PARTICIPATIONS AG, priority 2017, published 2020)

Assays:
[1] = test system: Puccinia recondita f. Sp. Tritici; assay: Fungicidal activity, wheat leaf disc preventative (brown rust); format: in vivo; settings: foliar, 200 ppm in the applied formulation, wheat leaf segments cv. Kanzler, compared to untreated control, 7 to 9 days after application, read-out: disease control
How it was run: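 Preventative leaf-segment test: spray application of diluted formulated compound on wheat cv. Kanzler, spore inoculation after 1 day. Percent control relative to untreated segments rated 7 to 9 days post-application, with incubation at 19° C, 75% relative humidity, 12 h photoperiod.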

[2] = test system: Glomerella lacenarium (Colletotrichum lacenarium); assay: Fungicidal activity, liquid culture, cucumber preventative (anthracnose); format: cell-based; settings: 20 ppm in the applied formulation, liquid culture in PDB, inhibition of growth measured photometrically 3 to 4 days after application, compared to untreated control, read-out: disease control
How it was run: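 Photometric read-out of fungal growth 3 to 4 days after application, expressed as percent control relative to untreated wells. Plates held at 24 °C. Compound placed in DMSO before adding PDB broth seeded with conidia from cryogenic storage.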

[3] = test system: Puccinia recondita f. Sp. Tritici; assay: Fungicidal activity, wheat leaf disc curative (brown rust); format: in vivo; settings: foliar, 200 ppm in the applied formulation, wheat leaf segments cv. Kanzler, curative (applied 1 day after inoculation), compared to untreated control, 6 to 8 days after application, read-out: disease control
Protocol: Leaf disks or leaf segments of various plant species are cut from plants grown in a greenhouse. The cut leaf disks or segments are placed in multiwell plates (24-well format) onto water agar. The leaf disks are sprayed with a test solution before (preventative) or after (curative) inoculation. Compounds to be tested are prepared as DMSO solutions (max. 10 mg/ml) which are diluted to the appropriate concentration with 0.025% Tween20 just before spraying. The inoculated leaf disks or segments are incubated under defined conditions (temperature, relative humidity, light, etc.) according to the respective test system. A single evaluation of disease level is carried out 3 to 14 days after inoculation, depending on the pathosystem. Percent disease control relative to the untreated check leaf disks or segments is then calculated.
Wheat leaf segments cv. Kanzler are placed on agar in multiwell plates (24-well format). The leaf segments are then inoculated with a spore suspension of the fungus. Plates were stored in darkness at 19° C. and 75% relative humidity. The formulated test compound diluted in water was applied 1 day after inoculation. The leaf segments were incubated at 19° C. and 75% relative humidity under a light regime of 12 hours light/12 hours darkness in a climate cabinet and the activity of a compound was assessed as percent disease control compared to untreated when an appropriate level of disease damage appears in untreated check leaf segments (6 to 8 days after application).
The following compounds at 200 ppm in the applied formulation give at least 80% disease control in this test when compared to untreated control leaf disks under the same conditions, which show extensive disease development.

CC(C)C(=O)N(Cc1ccc(-c2noc(C(F)(F)F)n2)s1)C(C)C [Compound 4.11, N-isopropyl-2-methyl-N-[[5-[5-(trifluoromethyl)-1,2,4-oxadiazol-3-yl]-2-thienyl]methyl]propanamide]
≥ 80%: pest or weed control at 200 ppm [1] | inhibition of growth at 20 ppm [2] | pest or weed control at 200 ppm [3]

COC(C)C(=O)N(Cc1ccc(-c2noc(C(F)(F)F)n2)s1)C1CC1 (stereo not drawn) [Compound 4.14, N-cyclopropyl-2-methoxy-N-[[5-[5-(trifluoromethyl)-1,2,4-oxadiazol-3-yl]-2-thienyl]methyl]propanamide]
≥ 80%: pest or weed control at 200 ppm [1] | inhibition of growth at 20 ppm [2] | pest or weed control at 200 ppm [3]

CCN(Cc1ccc(-c2noc(C(F)(F)F)n2)s1)C(=O)CNC(C)=O [Compound 4.23, 2-acetamido-N-ethyl-N-[[5-[5-(trifluoromethyl)-1,2,4-oxadiazol-3-yl]-2-thienyl]methyl]acetamide]
≥ 80%: pest or weed control at 200 ppm [1] | inhibition of growth at 20 ppm [2] | pest or weed control at 200 ppm [3]

CCN(Cc1ccc(-c2noc(C(F)(F)F)n2)s1)C(=O)CC#N [Compound 4.29, 2-cyano-N-ethyl-N-[[5-[5-(trifluoromethyl)-1,2,4-oxadiazol-3-yl]-2-thienyl]methyl]acetamide]
≥ 80%: pest or weed control at 200 ppm [1] | inhibition of growth at 20 ppm [2] | pest or weed control at 200 ppm [3]

CCCC(=O)N(C)Cc1ccc(-c2noc(C(F)(F)F)n2)s1 [Compound 4.34, N-methyl-N-[[5-[5-(trifluoromethyl)-1,2,4-oxadiazol-3-yl]-2-thienyl]methyl]butanamide]
≥ 80%: pest or weed control at 200 ppm [1] | inhibition of growth at 20 ppm [2] | pest or weed control at 200 ppm [3]

CCC(=O)N(C)Cc1ccc(-c2noc(C(F)(F)F)n2)s1 [Compound 4.36, N-methyl-N-[[5-[5-(trifluoromethyl)-1,2,4-oxadiazol-3-yl]-2-thienyl]methyl]propanamide]
≥ 80%: pest or weed control at 200 ppm [1] | inhibition of growth at 20 ppm [2] | pest or weed control at 200 ppm [3]

CN(Cc1ccc(-c2noc(C(F)(F)F)n2)s1)C(=O)CC#N [Compound 4.39, 2-cyano-N-methyl-N-[[5[5-(trifluoromethyl)-1,2,4-oxadiazol-3-yl]-2-thienyl]methyl]acetamide]
≥ 80%: pest or weed control at 200 ppm [1] | inhibition of growth at 20 ppm [2] | pest or weed control at 200 ppm [3]

CC(=O)N(C)Cc1ccc(-c2noc(C(F)(F)F)n2)s1 [Compound 4.41, N-methyl-N-[[5-[5-(trifluoromethyl)-1,2,4-oxadiazol-3-yl]-2-thienyl]methyl]acetamide]
≥ 80%: pest or weed control at 200 ppm [1] | inhibition of growth at 20 ppm [2] | pest or weed control at 200 ppm [3]

COCC(=O)N(Cc1ccc(-c2noc(C(F)(F)F)n2)s1)C(C)C [Compound 4.42, N-isopropyl-2-methoxy-N-[[5-[5-(trifluoromethyl)-1,2,4-oxadiazol-3-yl]-2-thienyl]methyl]acetamide]
≥ 80%: pest or weed control at 200 ppm [1] | inhibition of growth at 20 ppm [2] | pest or weed control at 200 ppm [3]

CC(=O)NCC(=O)N(Cc1ccc(-c2noc(C(F)(F)F)n2)s1)C(C)C [Compound 4.43, 2-acetamido-N-isopropyl-N-[[5-[5-(trifluoromethyl)-1,2,4-oxadiazol-3-yl]-2-thienyl]methyl]acetamide]
≥ 80%: pest or weed control at 200 ppm [1] | inhibition of growth at 20 ppm [2] | pest or weed control at 200 ppm [3]

CCCC(=O)N(Cc1ccc(-c2noc(C(F)(F)F)n2)s1)C(C)C [Compound 4.44, N-isopropyl-N-[[5-[5-(trifluoromethyl)-1,2,4-oxadiazol-3-yl]-2-thienyl]methyl]butanamide]
≥ 80%: pest or weed control at 200 ppm [1] | inhibition of growth at 20 ppm [2] | pest or weed control at 200 ppm [3]

COCCCC(=O)N(Cc1ccc(-c2noc(C(F)(F)F)n2)s1)C(C)C [Compound 4.48, N-isopropyl-4-methoxy-N-[[5-[5-(trifluoromethyl)-1,2,4-oxadiazol-3-yl]-2-thienyl]methyl]butanamide]
≥ 80%: pest or weed control at 200 ppm [1] | inhibition of growth at 20 ppm [2] | pest or weed control at 200 ppm [3]

CC(C)N(Cc1ccc(-c2noc(C(F)(F)F)n2)s1)C(=O)CC#N [Compound 4.49, 2-cyano-N-isopropyl-N-[[5-[5-(trifluoromethyl)-1,2,4-oxadiazol-3-yl]-2-thienyl]methyl]acetamide]
≥ 80%: pest or weed control at 200 ppm [1] | inhibition of growth at 20 ppm [2] | pest or weed control at 200 ppm [3]

CC(C)N(Cc1ccc(-c2noc(C(F)(F)F)n2)s1)C(=O)CC(F)(F)F [Compound 4.50, 3,3,3-trifluoro-N-isopropyl-N-[[5-[5-(trifluoromethyl)-1,2,4-oxadiazol-3-yl]-2-thienyl]methyl]propanamide]
≥ 80%: pest or weed control at 200 ppm [1] | inhibition of growth at 20 ppm [2] | pest or weed control at 200 ppm [3]

CC(=O)NCC(=O)N(Cc1ccc(-c2noc(C(F)(F)F)n2)s1)C1CC1 [Compound 4.53, 2-acetamido-N-cyclopropyl-N-[[5-[5-(trifluoromethyl)-1,2,4-oxadiazol-3-yl]-2-thienyl]methyl]acetamide]
≥ 80%: pest or weed control at 200 ppm [1] | inhibition of growth at 20 ppm [2] | pest or weed control at 200 ppm [3]

N#CCC(=O)N(Cc1ccc(-c2noc(C(F)(F)F)n2)s1)C1CC1 [Compound 4.59, 2-cyano-N-cyclopropyl-N-[[5-[5-(trifluoromethyl)-1,2,4-oxadiazol-3-yl]-2-thienyl]methyl]acetamide]
≥ 80%: pest or weed control at 200 ppm [1] | inhibition of growth at 20 ppm [2] | pest or weed control at 200 ppm [3]

COCC(=O)N(Cc1ccc(-c2noc(C(F)(F)F)n2)s1)OCC(F)F [Compound 4.62, N-(2,2-difluoroethoxy)-2-methoxy-N-[[5-[5-(trifluoromethyl)-1,2,4-oxadiazol-3-yl]-2-thienyl]methyl]acetamide]
≥ 80%: pest or weed control at 200 ppm [1] | inhibition of growth at 20 ppm [2] | pest or weed control at 200 ppm [3]

CCCC(=O)N(Cc1ccc(-c2noc(C(F)(F)F)n2)s1)OCC(F)F [Compound 4.63, N-(2,2-difluoroethoxy)-N-[[5-[5-(trifluoromethyl)-1,2,4-oxadiazol-3-yl]-2-thienyl]methyl]butanamide]
≥ 80%: pest or weed control at 200 ppm [1] | inhibition of growth at 20 ppm [2] | pest or weed control at 200 ppm [3]

COCCCC(=O)N(Cc1ccc(-c2noc(C(F)(F)F)n2)s1)OCC(F)F [Compound 4.67, N-(2,2-difluoroethoxy)-4-methoxy-N-[[5-[5-(trifluoromethyl)-1,2,4-oxadiazol-3-yl]-2-thienyl]methyl]butanamide]
≥ 80%: pest or weed control at 200 ppm [1] | inhibition of growth at 20 ppm [2] | pest or weed control at 200 ppm [3]

CCN(CC)C(=O)N(CC)Cc1ccc(-c2noc(C(F)(F)F)n2)s1 [Compound 4.73, 1,1,3-triethyl-3-[[5-[5-(trifluoromethyl)-1,2,4-oxadiazol-3-yl]-2-thienyl]methyl]urea]
≥ 80%: pest or weed control at 200 ppm [1] | inhibition of growth at 20 ppm [2] | pest or weed control at 200 ppm [3]

CCN(Cc1ccc(-c2noc(C(F)(F)F)n2)s1)C(=O)N(CCOC)CCOC [Compound 4.74, 1-ethyl-3,3-bis(2-methoxyethyl)-1-[[5-[5-(trifluoromethyl)-1,2,4-oxadiazol-3-yl]-2-thienyl]methyl]urea]
≥ 80%: pest or weed control at 200 ppm [1] | inhibition of growth at 20 ppm [2] | pest or weed control at 200 ppm [3]

COCCN(CCOC)C(=O)N(C)Cc1ccc(-c2noc(C(F)(F)F)n2)s1 [Compound 4.80, 1,1-bis(2-methoxyethyl)-3-methyl-3-[[5-[5-(trifluoromethyl)-1,2,4-oxadiazol-3-yl]-2-thienyl]methyl]urea]
≥ 80%: pest or weed control at 200 ppm [1] | inhibition of growth at 20 ppm [2] | pest or weed control at 200 ppm [3]
